Target: T1, hCRTH2 (Homo sapiens, UniProt Q9Y5Y4)
T1 construct: expressed in transfected cells; host or cells: HEK (human embryonic kidney) cells expressing hCRTH2; membrane preparation
T1 sequence (Q9Y5Y4 1-395): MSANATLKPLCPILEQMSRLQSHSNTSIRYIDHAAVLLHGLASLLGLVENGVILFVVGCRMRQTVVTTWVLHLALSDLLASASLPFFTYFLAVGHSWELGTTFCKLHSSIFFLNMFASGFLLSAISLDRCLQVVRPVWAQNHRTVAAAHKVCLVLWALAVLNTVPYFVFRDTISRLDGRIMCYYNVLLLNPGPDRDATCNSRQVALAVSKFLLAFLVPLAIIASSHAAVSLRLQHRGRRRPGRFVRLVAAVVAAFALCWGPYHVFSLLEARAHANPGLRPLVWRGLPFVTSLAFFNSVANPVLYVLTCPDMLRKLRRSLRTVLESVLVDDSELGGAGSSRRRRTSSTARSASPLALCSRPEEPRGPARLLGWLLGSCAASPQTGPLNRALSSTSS
Experiment: Radioligand binding assay ([3H]PGD2 competition, HEK-hCRTH2 membranes)
Settings: [3H]PGD2 binding
Summary of the method: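 Membranes (8-20 μg protein) from HEK-hCRTH2 cells were incubated 60 min at room temperature with 3.0 nM [3H]PGD2 in 50 mM Tris-HCl pH 7.4, 1 mM EDTA, 2 mM MnCl2, 1% DMSO. Non-specific binding defined with 10 μM PGD2. Bound radioactivity counted after filtration.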

| Ki (rated A-E (Table A)) [nM] | Ki (values in text) [nM] | SMILES |
| --- | --- | --- |
| 2.1 to 20 |  | CC(CCCc1nc2cc(C(=O)NCc3cccc(F)c3)ccc2nc1-c1ccc(F)cc1)C(=O)O (stereo not drawn) [compound 203, 3-(4-fluorophenyl)-7-[[[(3-fluorophenyl)methyl]amino]carbonyl]-alpha-methyl-2-quinoxalinepentanoic acid] |
| 2.1 to 20 |  | CC(CCCc1nc2cc(C(=O)NCc3ccc(F)cc3)ccc2nc1-c1ccc(F)cc1)C(=O)O (stereo not drawn) [compound 204, 3-(4-fluorophenyl)-7-[[[(4-fluorophenyl)methyl]amino]carbonyl]-alpha-methyl-2-quinoxalinepentanoic acid] |
| 2.1 to 20 |  | CC(CCCc1nc2cc(C(=O)N3CCC(c4ccccc4)CC3)ccc2nc1-c1ccc(F)cc1)C(=O)O (stereo not drawn) [compound 205, 3-(4-fluorophenyl)-alpha-methyl-7-[(4-phenyl-1-piperidinyl)carbonyl]-2-quinoxalinepentanoic acid] |
| 2.1 to 20 |  | CC(CCCc1nc2cc(C(=O)N3CCN(c4ccccc4)CC3)ccc2nc1-c1ccc(F)cc1)C(=O)O (stereo not drawn) [compound 206, 3-(4-fluorophenyl)-alpha-methyl-7-[(4-phenyl-1-piperazinyl)carbonyl]-2-quinoxalinepentanoic acid] |
| 2.1 to 20 |  | CC(CCCc1nc2cc(C(=O)NCc3ccc(C#N)cc3)ccc2nc1-c1ccc(F)cc1)C(=O)O (stereo not drawn) [compound 207, 7-[[[(4-cyanophenyl)methyl]amino]carbonyl]-3-(4-fluorophenyl)-alpha-methyl-2-quinoxalinepentanoic acid] |
| 2.1 to 20 |  | CC(CCCc1nc2cc(C(=O)N3CC(c4ccccc4)C3)ccc2nc1-c1ccc(F)cc1)C(=O)O (stereo not drawn) [compound 208, 3-(4-fluorophenyl)-alpha-methyl-7-[(3-phenyl-1-azetidinyl)carbonyl]-2-quinoxalinepentanoic acid] |
| 2.1 to 20 |  | CC(CCCc1nc2cc(C(=O)N[C@H](C)c3ccc(F)cc3)ccc2nc1-c1ccc(F)cc1)C(=O)O (stereo partly drawn) [compound 209, 3-(4-fluorophenyl)-7-[[[1(R)-(4-fluorophenyl)ethyl]amino]carbonyl]-alpha-methyl-2-quinoxalinepentanoic acid] |
| 2.1 to 20 |  | CC(CCCc1nc2cc(C(=O)N[C@@H](C)c3ccc(F)cc3)ccc2nc1-c1ccc(F)cc1)C(=O)O (stereo partly drawn) [compound 210, 3-(4-fluorophenyl)-7-[[[1(S)-(4-fluorophenyl)ethyl]amino]carbonyl]-alpha-methyl-2-quinoxalinepentanoic acid] |
| 2.1 to 20 |  | CC(CCCc1nc2cc(C(=O)N(C)Cc3cccc(F)c3)ccc2nc1-c1ccc(F)cc1)C(=O)O (stereo not drawn) [compound 211, 3-(4-fluorophenyl)-7-[[[(3-fluorophenyl)methyl]methylamino]carbonyl]-alpha-methyl-2-quinoxalinepentanoic acid] |
| 2.1 to 20 |  | CC(CCCc1nc2cc(C(=O)N(C)Cc3ccccc3)ccc2nc1-c1ccc(F)cc1)C(=O)O (stereo not drawn) [compound 212, 3-(4-fluorophenyl)-alpha-methyl-7-[[methyl(phenylmethyl)amino]carbonyl]-2-quinoxalinepentanoic acid] |
| 20.1 to 200 |  | CC(CCCc1nc2cc(C(=O)N[C@@H](CCO)c3ccccc3)ccc2nc1-c1ccc(F)cc1)C(=O)O (stereo partly drawn) [compound 213, 3-(4-fluorophenyl)-7-[[(3-hydroxy-1(S)-phenylpropyl)amino]carbonyl]-alpha-methyl-2-quinoxalinepentanoic acid] |
| 0.1 to 2 |  | COc1ccc(-c2nc3ccc(C(=O)N[C@H](C)c4ccc(F)cc4)cc3nc2CCCCC(=O)O)cc1 [compound 214, 7-[[[1(R)-(4-fluorophenyl)ethyl]amino]carbonyl]-3-(4-methoxyphenyl)-2-quinoxalinepentanoic acid] |
| 2.1 to 20 |  | C[C@@H](NC(=O)c1ccc2nc(-c3ccc(C#N)cc3)c(CCCCC(=O)O)nc2c1)c1ccc(F)cc1 [compound 215, 3-(4-cyanophenyl)-7-[[[1(R)-(4-fluorophenyl)ethyl]amino]carbonyl]-2-quinoxalinepentanoic acid] |
| 20.1 to 200 |  | CC(C)Oc1ccc(-c2nc3ccc(C(=O)N4CCC(c5ccccc5)CC4)cc3nc2CCCCC(=O)O)cc1 [compound 216, 3-[4-(1-methyl-ethoxy)phenyl]-7-[(4-phenyl-1-piperidinyl)carbonyl]-2-quinoxalinepentanoic acid] |

Second part, the molecule before the results:

| SMILES | Ki (rated A-E (Table A)) [nM] | Ki (values in text) [nM] |
| --- | --- | --- |
| O=C(O)Cc1cccc(CCc2nc3cc(C(=O)NCc4cccc(F)c4)ccc3nc2-c2ccc(F)cc2)c1 [compound 192, 3-[2-[3-(4-fluorophenyl)-7-[[[(3-fluorophenyl)methyl]amino]carbonyl]-2-quinoxalinyl]ethyl]benzencacetic acid] | 2.1 to 20 |  |
| O=C(O)Cc1cccc(CCc2nc3cc(C(=O)NCc4ccc(F)cc4)ccc3nc2-c2ccc(F)cc2)c1 [compound 193, 3-[2-[3-(4-fluorophenyl)-7-[[[(4-fluorophenyl)methyl]amino]carbonyl]-2-quinoxalinyl]ethyl] benzeneacetic acid] | 2.1 to 20 | 14.6 |
| N#Cc1ccc(CNC(=O)c2ccc3nc(-c4ccc(F)cc4)c(CCc4cccc(CC(=O)O)c4)nc3c2)cc1 [compound 194] | 20.1 to 200 |  |
| C[C@@H](NC(=O)c1ccc2nc(-c3ccc(F)cc3)c(CCc3cccc(CC(=O)O)c3)nc2c1)c1ccc(F)cc1 [compound 195, 3-[2-[3-(4-fluorophenyl)-7-[[[1(R)-(4-fluorophenyl)ethyl]amino]carbonyl]-2-quinoxalinyl]ethyl] benzeneacetic acid] | 20.1 to 200 |  |
| C[C@H](NC(=O)c1ccc2nc(-c3ccc(F)cc3)c(CCc3cccc(CC(=O)O)c3)nc2c1)c1ccc(F)cc1 [compound 196] | 20.1 to 200 |  |
| O=C(O)Cc1cccc(CCc2nc3cc(C(=O)N[C@@H](CCO)c4ccccc4)ccc3nc2-c2ccc(F)cc2)c1 [compound 197, 3-[2-[3-(4-fluorophenyl)-7-[[(3-hydroxy-1(S)-phenylpropyl)amino]carbonyl]-2-quinoxalinyl]ethyl] benzeneacetic acid] | 201 to 700 | 464 |
| O=C(O)Cc1cccc(CCc2nc3cc(C(=O)N4CCC(c5ccccc5)CC4)ccc3nc2-c2ccc(F)cc2)c1 [compound 198, 3-[2-[3-(4-fluorophenyl)-7-[(4-phenyl-1-piperidinyl)carbonyl]-2-quinoxalinyl]ethyl] benzeneacetic acid] | 2.1 to 20 |  |
| O=C(O)Cc1cccc(CCc2nc3cc(C(=O)N4CCN(c5ccccc5)CC4)ccc3nc2-c2ccc(F)cc2)c1 [compound 199, 3-[2-[3-(4-fluorophenyl)-7-[(4-phenyl-1-piperazinyl)carbonyl]-2-quinoxalinyl]ethyl] benzeneacetic acid] | 2.1 to 20 |  |
| O=C(O)Cc1cccc(CCc2nc3cc(C(=O)N4CC(c5ccccc5)C4)ccc3nc2-c2ccc(F)cc2)c1 [compound 200, 3-[2-[3-(4-fluorophenyl)-7-[(3-phenyl-1-azetidinyl)carbonyl]-2-quinoxalinyl]ethyl] benzeneacetic acid] | 2.1 to 20 |  |
| CN(Cc1cccc(F)c1)C(=O)c1ccc2nc(-c3ccc(F)cc3)c(CCc3cccc(CC(=O)O)c3)nc2c1 [compound 201] | 0.1 to 2 |  |
| CN(Cc1ccccc1)C(=O)c1ccc2nc(-c3ccc(F)cc3)c(CCc3cccc(CC(=O)O)c3)nc2c1 [compound 202, 3-[2-[3-(4-fluorophenyl)-7-[[methyl(phenylmethyl)amino]carbonyl]-2-quinoxalinyl]ethyl] benzeneacetic acid] | 0.1 to 2 |  |

From patent US9469615B2, “Quinoxalines and AZA-quinoxalines as CRTH2 receptor modulators” (Merck Sharp & Dohme Corp., priority 2010, dated 2016)
